We go through 64 compounds from a melting point compilation (Tetko et al.; mined from patent text by program, amines drawn as free bases though some values may be those of a salt).

By melting point is commonly meant the temperature, or range, at which the solid turns liquid. For `COCOc1ccccc1-c1nc(N)c(C#N)c(-c2cccc([N+](=O)[O-])c2)c1C`, the melting point fell in the range of 154 to 155 °C. On to `Cc1nn2c(C(F)(F)F)cc(-c3ccc(F)c(Cl)c3)nc2c1C#N`, for which the melting point came out at 196 °C.

In turn, `COC(=O)c1ccc(C#CC2(O)CN3CCC2CC3)nc1` (centres undefined) showed a melting point of 180 to 182 °C. Then `O=CC1CCN1C(c1ccccc1)c1ccccc1` (centres undefined), with 85 to 86 °C. In turn, `CN1CCCc2ccc(C(=O)CCC(=O)N3CCC(c4ccc(Cl)cc4)CC3)cc2C1` gave a melting point of 133 to 134 °C. `CSc1nc2cnc3ccccc3c2s1`: the melting point fell in the range of 116 to 119 °C. `CCOC(=O)C(C)ON1CCNC1=Nc1c(Cl)cccc1Cl` (centres undefined) registered a melting point of 79 to 80 °C. The compound `NC(N)C(=O)c1ccccc1` returned a melting point of 104 to 107 °C. Then `CCCn1c(=O)c2[nH]c(-c3ccc(OCC(=O)O)cc3)nc2n(CCC)c1=O`, with 214 to 216 °C; and `COC1=C(OC)C(=O)C2=C(CCC(CCOc3ccc(-c4ccccc4)cc3)CC2)C1=O`, with 109 to 112 °C; and `OC[C@@H]1O[C@H](n2c(NC3CC3)nc3c(Br)c(Cl)c(Cl)cc32)[C@@H](O)[C@H]1O`, with 205 to 208 °C.

In turn, `N#Cc1c[nH]c(-c2ccc(F)cc2)c1` showed a melting point of 158 to 159 °C. For the compound `Cc1nn(Cc2ccccc2)c(C)c1CC(=O)O`, the melting point lay in the range of 119 to 121 °C.

In turn, `CC(=O)Nc1cc2c(cc1Cl)CCN(C)C[C@@H]2c1ccccc1` registered a melting point of 105 to 110 °C. In turn, `CC(C(=O)O)c1ccc(-c2ccc(O)cc2)cc1` (centres undefined) returned a melting point of 205 to 206 °C. Turning to `COc1ccc(-c2c3c(c(C)c4ccc(OC)cc24)C(=O)NC3=O)cc1`, the melting point was in the range of 282 to 284 °C. Regarding `Cc1ccc2c(c1)c(CCC(=O)O)c1n2C(=O)CCC1`, the melting point was in the range of 152 to 153 °C.

With `CCC1(CC)c2cc(-c3ccc4c(c3)C(CC)(CC)c3cc(N(c5ccccc5)c5ccccc5)ccc3-4)ccc2-c2ccc(-c3nc4ccccc4s3)cc21`, the melting point was in the range of 217 to 218 °C. Then `COc1ccc(C(=O)c2c(N)sc3c2CCN(C(=O)c2ccccc2)C3)cc1OC`, with 143 to 145 °C. Then `NC(=O)c1ccc(OCCNCC(O)c2ccccc2)cc1O` (centres undefined), with 141 to 142 °C; and `C=C(C)COc1ccc(C(=O)C=Cc2cccs2)c(O)c1`, with 119 to 120 °C. On to `CCOc1ccc(-n2c(N)cc(=O)[nH]c2=S)cc1`, for which the melting point lay within 222 to 225 °C. Turning to `Nc1c(C2CNCCO2)oc2ccccc2c1=O` (centres undefined), the melting point lay in the range of 140 to 141 °C.

`CSc1ccc(C=CC(=O)C=Cc2ccc(SC)cc2)cc1`: the melting point was 143 to 145 °C. In turn, `CC1(C)CCc2cc(S(=O)(=O)n3c(CCCC(=O)O)cc4cc(Cl)ccc43)ccc2O1` came in with a melting point of 166 to 169 °C. Then `N#Cc1ccc(N2CC(CO)OC2=O)cc1` (centres undefined), with 186 °C. Take `Cc1c(NC(=O)C(CSC(=O)OCC(C)C)Cc2ccccc2)cccc1C(=O)O` (centres undefined): the melting point was in the range of 165 to 167 °C.

For the compound `N#CNC(=NC1CCCC1)Nc1cccc(C(F)(F)F)c1`, the melting point was 112 to 113 °C. As to `CS(=O)(=O)Nc1cc(N2C(=O)C3=C(CCCC3)C2=O)c(F)cc1C#N`, the melting point was 113 °C. `Cc1n[nH]c2c1C(=O)CC(C)(C)C2`: the melting point is 103 to 104 °C. On to `N#Cc1cc(C(F)(F)F)ccc1Nc1ccccc1[N+](=O)[O-]`, for which the melting point lay in the range of 160 to 161 °C. `CCCOc1cc(CCCC2OC(=O)NC2=O)ccc1OCc1nc(-c2ccccc2)oc1C` (centres undefined) yielded a melting point of 119 to 120 °C. In the case of `CCN(CC)c1ccc(-c2nnc(Nc3ccc(Br)c(Cl)c3)s2)cc1`, the melting point lay within 232 to 233 °C. `CCNC(=O)CCCNC(=O)CCCNC(=O)CCCNC(=O)OC(C)(C)C` had a melting point of 170 to 171 °C.

On to `Cc1oc(-c2ccccc2)nc1CC#Cc1ccc(CC(C(=O)O)c2cccc(-c3ccccc3)c2)cc1` (centres undefined), for which the melting point was 105 to 107 °C. In turn, `OCC(CO)Cc1ccccc1` had a melting point of 64 to 65 °C. `CC(C)(C)c1cc(S)cc(C(C)(C)C)c1` had a melting point of 47 to 49 °C. `COc1cc2c(cc1Nc1ncc(Cl)c(N[C@H]3[C@@H](C(N)=O)[C@@H]4C=C[C@H]3C4)n1)CCN(CC(=O)N(C)C)CC2`: the melting point was in the range of 109 to 127 °C. In turn, `CCN1C(=O)CN=C(c2ccccc2F)c2cc(C(C)=O)ccc21` gave a melting point of 154 to 156 °C. `CCCCCC(C)C(C)c1cc(O)c2c(c1)OC(C)(C)c1ccncc1-2` (centres undefined) showed a melting point of 155 to 157 °C. On to `O=C(O)c1cc(O)cc2nc3c(O)cccc3nc12`, for which the melting point was above 300 °C. Compound `Cc1[nH]c(-c2ccccc2)c(N)c1C(=O)c1ccccc1Cl` returned a melting point of 214 to 216 °C. With `CC(C)(C)OC(=O)N[C@@H]1C(=O)N2C(C(=O)OC(C)(C)C)=C(C=O)CC[C@H]12`, the melting point fell in the range of 194 to 195 °C.

With `Cc1ncsc1CCOc1ccc(NC(=O)c2cc(F)cc(N3CCOCC3)c2)c2ccccc12`, the melting point lay within 186 to 187 °C. Then `CCN(CC)C(=O)COC(=O)CCNC(=O)[C@H](Cc1ccc(-c2ccccc2)cc1)NCP(=O)(Oc1ccccc1)Oc1ccccc1`, with 68 to 74 °C. In turn, `N#CC1CCN1C(c1ccccc1)c1ccccc1` (centres undefined) showed a melting point of 104 to 105 °C. In turn, `N#Cc1c2c(c3c(c1N1CCCC1)Cc1ccccc1-3)-c1ccccc1C2` yielded a melting point of 206 to 208 °C.

`CC1(C)C=C(C#N)c2cc3nonc3cc2O1` yielded a melting point of 136 to 138 °C. The compound `CC(C)CSc1nc2c(cc1C#N)C(=O)CC(C)(C)C2` had a melting point of 75 to 76 °C. `CCC(=O)c1cc2c(Oc3ccc(Cl)cc3)cncc2s1` had a melting point of 101 to 102 °C. The figure for `O=C(Cn1nc(-c2ccccc2O)nc1-c1ccccc1O)NCC(O)CO` (centres undefined) is 180 to 181 °C; for `COC(=O)c1ccc2cc(-c3ccc(OC)cc3)oc2c1` it is 163 to 164 °C. `CSc1ccc(C=CC(=O)c2ccc([N+](=O)[O-])cc2)cc1` had a melting point of 160 °C. Take `CCCc1cc(Cl)c2oc(C(=O)c3ccccc3)c(C)c2c1OC(=O)c1ccccc1`: the melting point was in the range of 141 to 142 °C.

The compound `CCCOc1ccc2cc(OCc3ccccc3)c(C(=O)O)cc2c1` showed a melting point of 125 to 128 °C. Regarding `CCCOc1ccc(S(=O)(=O)N2CCN(C)CC2)cc1-c1nc2cc(Cl)c([N+](=O)[O-])cc2c(=O)[nH]1`, the melting point lay in the range of 225 to 228 °C.

Compound `CC(C)CC1(C(C)C(=O)NO)CCN(CCc2ccccc2)C1=O` (centres undefined) yielded a melting point of 107 to 108 °C.

The compound `COc1ccc(Nc2ccc(OCc3ccccc3)cc2)c(CO)c1` gave a melting point of 100 to 101 °C. Take `O=C(O)c1ccccc1Oc1ccccc1C1CCCCC1`: the melting point fell in the range of 109 to 123 °C.

As for `COC(=O)c1nc2c(c(-c3ccccc3)nn2-c2ccccc2)c(N)c1C(=S)OC`, the melting point was in the range of 160 to 161 °C.

Regarding `CC1SC(=O)C=NC1=O` (centres undefined), the melting point lay within 81 to 83 °C. Regarding `COC(=O)N(C)C(=O)N(SC(Cl)Cl)c1ccccc1`, the melting point was in the range of 77 to 78 °C.

Take `CCC(=O)c1cc2n(c(=O)c1C)Cc1cc3ccccc3nc1-2`: the melting point fell in the range of 233 to 234 °C. In the case of `CS(=O)(=O)c1ccc(C(Cc2cccc(F)c2)C(=O)Nc2cnc(CO)cn2)cc1` (centres undefined), the melting point was in the range of 82.8 to 98.7 °C.
